The source of these data is US20070232615A1, “Chemical Compounds” (priority 2004, published 2007).

Common to all, as to assay type: cell-based
In series [1] the target is T1, human CXCR4 (Homo sapiens, UniProt P61073).
T1 construct: expressed in transfected cells; host or cells: HEK-293 cells (stably expressing human macrophage scavenger receptor class A type 1), transduced with human CXCR4 BacMam and Gqi5 BacMam baculoviruses
Description: Functional FLIPR assay (block of SDF-1 alpha induced [Ca2+]i change). To be noted: HEK-293 cells with human CXCR4 and Gqi5 BacMam; antagonism of SDF-1 alpha; read-out: Functional assay (pIC50) (converted). Here is the method: Human embryonic kidney (HEK-293) cells were maintained and harvested as described above. Cells were plated in 96-well, black clear bottom, poly-lysine coated plates at a concentration of 40,000 cells per well in a final volume of 100 ul containing human CXCR4 BacMam (MOI=25) and Gqi5 BacMam (MOI=12.5). The cells were incubated at 37° C., 5% CO2, 95% humidity for 24 h to allow for protein expression.
After the required incubation time the cells were washed once with 50 ul of fresh serum-free DMEM/F12 media containing probenicid. 50 ul of dye solution was then added to the cells (Calcium Plus Assay Kit Dye; Molecular Devices) was dissolved in 200 ml of the above probenicid/BSA containing media and incubated for 1 h. Cell plates were transferred to a Fluorometric Imaging Plate Reader (FLIPR). Upon addition the effect of the compounds on the change in [Ca^2+]i was examined to determine if the compounds were agonists or antagonists (ability to block SDF-1 alpha activity) at the CXCR4 receptor. IC50 values are determined and pKb values are calculated using the Leff and Dougall equation: KB=IC50/((2+([agonist]/EC50ˆb)ˆ1/b−1) Where IC50 is that defined by the antagonist concentration-response curve [agonist] is the EC80 concentration of agonist used EC50 is that defined by the agonist concentration-response curve b is the slope of the agonist concentration-response curve.

The nature of series [2]: Compound cytotoxicity in the absence of virus (CellTiter-Glo). Conditions: human; HOS cells, no virus; read-out: Cytotox (pIC50) (converted). Here is the method:
(§1) Compounds were profiled against two HIV-1 viruses, the M-tropic (CCR5 utilizing) Ba-L strain and the T-tropic (CXCR4 utilizing) IIIB strain. Both viruses were propagated in human peripheral blood lymphocytes. Compounds were tested for there ability to block infection of the HOS cell line (expressing hCXCR4/hCCR5/hCD4/pHIV-LTR-luciferase) by either HIV-1 Ba-L or HIV-1 IIIB. Compound cytotoxicity was also examined in the absence of virus addition.
(§2) HOS cells (expressing hCXCR4/hCCR5/hCD4/pHIV-LTR-luciferase) were harvested and diluted in Dulbeccos modified Eagles media supplemented with 2% FCS and non-essential amino acid to a concentration of 60,000 cells/ml. The cells were plated into 96-well plates (100 ul per well) and the plates were placed in a tissue culture incubator (37° C.; 5% CO2/95% air) for a period of 24 h.
(§3) Subsequently, 50 ul of the desired drug solution (4 times the final concentration) was added to each well and the plates were returned to the tissue culture incubator (37° C.; 5% CO2/95% air) for 1 h. Following this incubation 50 ul of diluted virus was added to each well (approximately 2 million RLU per well of virus). The plates were returned to the tissue culture incubator (37° C.; 5% CO2/95% air) and were incubated for a further 96 h.
(§4) Following this incubation the endpoint for the virally infected cultures was quantified following addition of Steady-Glo Luciferase assay system reagent (Promega, Madison, Wis.). Cell viability or non-infected cultures was measured using a CellTiter-Glo luminescent cell viability assay system (Promega, Madison, Wis.). All luminescent readouts are performed on a Topcount luminescence detector (Packard, Meridien, Conn.).
(In general: In ATP-based viability assays light output follows the ATP content of the culture.)

Series [3] has as its system HOS (hCXCR4/hCCR5/hCD4/pHIV-LTR-luciferase) cells and HEK-293 cells expressing HIV-1 gp160 (HXB2 strain). The series can be described thus: Cell/cell fusion assay (luciferase). Conditions: Homo sapiens, HEK293; 24 h, luciferase readout; read-out: Fusion assay (pIC50) (converted). The text has this: The complete coding sequences of HIV-1 tat (GenBank Accession No. X07861) and rev (GenBank Accession No. M34378) were cloned into pcDNA3.1 expression vectors containing G418 and hygromycin resistance genes, respectively. The complete coding sequence of the HIV-1 (HXB2 strain) gp160 envelope gene (nucleotide bases 6225-8795 of GenBank Accession No. K03455) was cloned into plasmid pCRII-TOPO. The three HIV genes were additionally inserted into the baculovirus shuttle vector, pFastBacMam1, under the transcriptional control of the CMV promoter. A construction of the pHIV-I LTR containing mutated NFkB sequences linked to the luciferase reporter gene was prepared by digesting pcDNA3.1, containing the G418 resistance gene, with Nru I and Bam HI to remove the CMV promoter. LTR-luc was then cloned into the Nru I/Bam HI sites of the plasmid vector. Plasmid preparations were performed after the plasmids were amplified in Escherichia coli strain DH5-alpha. The fidelity of the inserted sequences was confirmed by double-strand nucleotide sequencing using an ABI Prism Model 377 automated sequencer.
BacMam Baculovirus Generation
Recombinant BacMam baculoviruses were constructed from pFastBacMam shuttle plasmids by using the bacterial cell-based Bac-to-Bac system. Viruses were propagated in Sf9 (Spodoptera frugiperda) cells cultured in Hink's TNM-FH Insect media supplemented with 10% (v/v) fetal bovine serum and 0.1% (v/v) pluronic F-68 according to established protocols.
Human osteosarcoma (HOS) cells that naturally express human CXCR4 were transfected with human CCR5, human CD4 and the pHIV-LTR-luciferase plasmid using FuGENE 6 transfection reagent. Single cells were isolated and grown under selection condition in order to generate a stable HOS (hCXCR4/hCCR5/hCD4/pHIV-LTR-luciferase) clonal cell line. The cells were maintained in Dulbeccos modified Eagles media supplemented with 10% fetal calf serum (FCS), G418 (400 ug/ml), puromycin (1 ug/ml), mycophenolic acid (40 ug/ml), xanthine (250 ug/ml) and hypoxanthine (13.5 ug/ml) to maintain a selection pressure for cells expressing the LTR-luciferase, hCCR5 and hCD4, respectively. Human embryonic kidney (HEK-293) cells stably transfected to express the human macrophage scavenging receptor (Class A, type 1; GenBank Accession No. D90187), were maintained in DMEM/F-12 media (1:1) supplemented with 10% FCS and 1.5 ug/ml puromycin. The expression of this receptor by the HEK-293 cells enhances their ability to stick to tissue culture treated plasticware.
Transduction of HEK-293 cells
HEK-293 cells were harvested using enzyme-free cell dissociation buffer. The cells were resuspended in DMEM/F-12 media supplemented with 10% FCS and 1.5 ug/ml and counted. Tranductions were performed by direct addition of BacMam baculovirus containing insect cell media to cells. The cells were simultaneously transduced with BacMam baculovirus expressing HIV-1 tat, HIV-1 rev and HIV-1 gp160 (from the HXB2 HIV strain). Routinely an MOI of 10 of each virus was added to the media containing the cells. 2 mM butyric acid was also added to the cells at this stage to increase protein expression in transduced cells. The cells were subsequently mixed and seeded into a flask at 30 million cells per T225. The cells were incubated at 37° C., 5% CO2, 95% humidity for 24 h to allow for protein expression.
Cell/Cell Fusion Assay Format
HEK and HOS cells were harvested in DMEM/F-12 media containing 2% FCS and DMEM media containing 2% FCS, respectively, with no selection agents added. Compounds were plated as 1 ul spots in 100% DMSO on a 96-well CulturPlate plates. HOS cells (50 ul) were added first to the wells, followed immediately by the HEK cells (50 ul). The final concentration of each cell type was 20,000 cells per well. Following these additions, the cells were returned to a tissue culture incubator (37° C.; 5% CO2/95% air) for an additional 24 h.
Measurement of Luciferase Production […]

Series [4] concerns HIV-1 IIIB. Description: HOS HIV-1 infectivity assay, IIIB strain. Conditions: Human immunodeficiency virus 1; HOS cells, HIV-1 IIIB (T-tropic, CXCR4 utilizing), 96 h; read-out: HOS (3B). How it is done:
HOS HIV-1 Infectivity Assay
as §1
HOS HIV-1 Infectivity Assay Format
as §2, §3, §4

Series [5] relates to HIV. Description: HOS HIV infectivity assay (Table 2, strain not given). To be noted: Human immunodeficiency virus 1, read-out: Activity Level. In short, it runs like this:
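HOS cells expressing hCXCR4/hCCR5/hCD4 and an HIV-LTR-luciferase reporter were preincubated with compound for 1 h in DMEM/2% FCS. They were then infected with HIV-1 Ba-L or IIIB (about 2 million RLU/well) for 96 h at 37° C. Infection was read by luciferase luminescence, and viability in uninfected cultures by CellTiter-Glo.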

Structures are written as SMILES.

T1 sequence (P61073 whole entry): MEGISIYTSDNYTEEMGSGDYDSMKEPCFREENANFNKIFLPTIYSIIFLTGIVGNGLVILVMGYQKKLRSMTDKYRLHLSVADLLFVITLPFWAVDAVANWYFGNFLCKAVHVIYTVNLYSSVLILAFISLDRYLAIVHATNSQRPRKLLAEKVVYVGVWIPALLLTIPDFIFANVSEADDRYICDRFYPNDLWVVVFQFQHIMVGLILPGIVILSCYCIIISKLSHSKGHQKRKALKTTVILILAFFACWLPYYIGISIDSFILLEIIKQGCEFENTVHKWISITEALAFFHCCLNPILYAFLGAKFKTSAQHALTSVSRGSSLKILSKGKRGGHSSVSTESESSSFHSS

Consider `CN(Cc1cn2c(N3CCNCC3)cccc2n1)C1CCCc2cccnc21` (stereo not drawn) [Example 10, N-Methyl-N-{[5-(1-piperazinyl)imidazo[1,2-a]pyridin-2-yl]methyl}-5,6,7,8-tetrahydro-8-quinolinamine], for which the IC50 is 6.92 nM in series [1], 17.8 nM in series [3], 20 nM in series [4] and < 100 nM in series [5]. In series [2], the IC50 at 96 h was > 100000 nM.
Take `CC(C)N1CCN(c2cccc3nc(CN(C(C)C)C4CCCc5cccnc54)cn23)CC1` (stereo not drawn) [Example 15, N-(1-Methylethyl)-N-({5-[4-(1-methylethyl)-1-piperazinyl]imidazo[1,2-a]pyridin-2-yl}methyl)-5,6,7,8-tetrahydro-8-quinolinamine]: the IC50 in series [1] was 3.63 nM; in series [3], 79.4 nM; in series [4], 38 nM; in series [5], < 100 nM. The IC50 at 96 h in series [2] was > 100000 nM.
On to `CC(C)N1CCN(c2cccc3nc(CN(CC(F)(F)F)C4CCCc5cccnc54)cn23)CC1` (stereo not drawn) [Example 17, N-({5-[4-(1-Methylethyl)-1-piperazinyl]imidazo[1,2-a]pyridin-2-yl}methyl)-N-(2,2,2-trifluoroethyl)-5,6,7,8-tetrahydro-8-quinolinamine], for which the IC50 was 8.91 nM in series [1], 2140 nM in series [3], 300 nM in series [4] and 100 to 500 nM in series [5]. In addition, in series [2], the IC50 at 96 h was > 100000 nM.
In the case of `CN1CCN(c2cccc3nc(CN(CC(F)(F)F)C4CCCc5cccnc54)cn23)CC1` (stereo not drawn) [Example 16, N-{[5-(4-Methyl-1-piperazinyl)imidazo[1,2-a]pyridin-2-yl]methyl}-N-(2,2,2-trifluoroethyl)-5,6,7,8-tetrahydro-8-quinolinamine], the IC50 is 4.37 nM in series [1], 417 nM in series [3], 145 nM in series [4] and 100 to 500 nM in series [5]. In series [2], the IC50 at 96 h is > 100000 nM.
On the same counts, the results for `CC1CN(c2cccc3nc(CN(C)C4CCCc5cccnc54)cn23)CC(C)N1C` (stereo not drawn) [Example 13, N-Methyl-N-{[5-(3,4,5-trimethyl-1-piperazinyl)imidazo[1,2-a]pyridin-2-yl]methyl}-5,6,7,8-tetrahydro-8-quinolinamine] are 18.2 nM, 77.6 nM, 62 nM, < 100 nM and > 100000 nM.
As for `CN(C)Cc1ccc(-c2cccc3nc(CN(C)C4CCCc5cccnc54)cn23)cc1` (stereo not drawn) [Example 18, N-[(5-{4-[(Dimethylamino)methyl]phenyl}imidazo[1,2-a]pyridin-2-yl)methyl]-N-methyl-5,6,7,8-tetrahydro-8-quinolinamine], the IC50 in series [1] was 38.9 nM; in series [3], 148 nM; in series [4], 65 nM; in series [5], < 100 nM. Further, the IC50 at 96 h in series [2] is > 100000 nM.
In the case of `CN1CCN(c2cccc3nc(CN(C)C4CCCc5cccnc54)cn23)CC1` (stereo not drawn) [Example 6, N-Methyl-N-{[5-(4-methyl-1-piperazinyl)imidazo[1,2-a]pyridin-2-yl]methyl}-5,6,7,8-tetrahydro-8-quinolinamine], the IC50 in series [1] is 7.94 nM; in series [3] it was 3.31 nM; in series [4], 6.3 nM; in series [5], < 100 nM. Besides, in series [2], the IC50 at 96 h was > 100000 nM.
With `CCN1CCN(c2cccc3nc(CN(C)C4CCCc5cccnc54)cn23)CC1` (stereo not drawn) [Example 7, N-{[5-(4-Ethyl-1-piperazinyl)imidazo[1,2-a]pyridin-2-yl]methyl}-N-methyl-5,6,7,8-tetrahydro-8-quinolinamine], the IC50 in series [1] was 6.92 nM; in series [3], 11.2 nM; in series [4], 11 nM; in series [5], < 100 nM. Also, the IC50 at 96 h in series [2] was > 100000 nM.
Turning to `CN(Cc1cn2c(-c3ccncc3)cccc2n1)C1CCCc2cccnc21` (stereo not drawn) [Example 19, N-Methyl-N-{[5-(4-pyridinyl)imidazo[1,2-a]pyridin-2-yl]methyl}-5,6,7,8-tetrahydro-8-quinolinamine], the IC50 in series [1] is 20.4 nM; in series [3], 3160 nM; in series [4], 280 nM; in series [5], 100 to 500 nM. Also, in series [2], the IC50 at 96 h is > 100000 nM.
